Test results published in patent US12343319B2, “Compositions and methods for treatment of diseases and disorders” (Atai Therapeutics Inc., priority 2023, dated 2025).
Where two headings read alike, the source gives them in different places.

What was measured:
5-HT2A [1] = target: 5-HT2A (Homo sapiens, UniProt P28223); assay: β-Arrestin, 5-HT2A; type: cell-based; set-up: expressed in transfected cells; settings: for Emax: read-out: Emax (%5-HT)
Description: (§1) In vitro pharmacology studies were performed to evaluate the effects of compound 2-1 on functional activity of several 5-HT receptors using recombinant target overexpression cell culture systems. The effect of compound 2-1 on G protein-dependent signaling was investigated at 5-HT2A, 5-HT2B, and 5-HT2C receptors with calcium mobilization and IPOne assays; and at 5-HT1A, 5-HT1B, 5-HT1F, 5-HT5A, and 5-HT7D receptors with a cAMP assay. G protein-independent signaling was investigated at the 5-HT2A receptor with a β-Arrestin assay.
(§2) In vitro pharmacology studies were performed to evaluate the effects of compound 2-2 on functional activity at several 5-HT receptors using recombinant target overexpression cell culture systems. The effect of compound 2-2 on G protein-dependent signaling was investigated at 5-HT2A, 5-HT2B, and 5-HT2C receptors with calcium mobilization and IPOne assays; and at 5-HT1A, 5-HT1B, 5-HT1F, 5-HT5A, and 5-HT7D receptors with a cAMP assay. G protein-independent signaling was investigated at the 5-HT2A receptor with a β-arrestin assay. […] In Table 4, 5-HT receptor selectivity was calculated using ΔΔlog(Emax/EC50). Assay reference α-Me-5-HT or 5-HT was used for normalization at each receptor (5-HT2A/5-HT2B selectivity=1; 5-HT2A/5-HT2C selectivity=1). ND in Table 4 indicates, not determined, plateau was not reached within the concentration range tested to determine Emax.

5-HT2C = target: T1, 5-HT2C (Homo sapiens, UniProt P28335); assay: Ca++ (calcium mobilization), 5-HT2C; type: cell-based; settings: for Emax: Ca++, human 5-HT2C, read-out: Emax (%5-HT)
T1 construct: expressed in transfected cells
T1 sequence (P28335 33-458): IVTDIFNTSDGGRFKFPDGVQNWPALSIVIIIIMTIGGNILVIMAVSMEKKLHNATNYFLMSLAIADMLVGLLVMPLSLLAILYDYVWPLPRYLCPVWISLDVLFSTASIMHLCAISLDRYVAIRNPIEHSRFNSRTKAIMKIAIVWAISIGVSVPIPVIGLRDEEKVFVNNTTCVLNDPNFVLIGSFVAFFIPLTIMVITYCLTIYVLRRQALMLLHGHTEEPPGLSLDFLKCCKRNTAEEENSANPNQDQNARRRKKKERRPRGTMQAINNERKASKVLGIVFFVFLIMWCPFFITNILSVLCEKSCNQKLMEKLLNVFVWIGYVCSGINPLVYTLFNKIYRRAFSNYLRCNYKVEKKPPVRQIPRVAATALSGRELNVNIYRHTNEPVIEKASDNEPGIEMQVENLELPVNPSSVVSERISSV
Description: as §1, §2

5-HT2A receptor = 5-HT2A receptor (Mus musculus, UniProt P35363); assay: Mouse head twitch response (HTR); type: in vivo; set-up: endogenous in cells; host or cells: adult male C57BL/6J mice, in vivo; settings: for ED50: mouse
Sequence of 5-HT2A receptor (P35363 whole entry): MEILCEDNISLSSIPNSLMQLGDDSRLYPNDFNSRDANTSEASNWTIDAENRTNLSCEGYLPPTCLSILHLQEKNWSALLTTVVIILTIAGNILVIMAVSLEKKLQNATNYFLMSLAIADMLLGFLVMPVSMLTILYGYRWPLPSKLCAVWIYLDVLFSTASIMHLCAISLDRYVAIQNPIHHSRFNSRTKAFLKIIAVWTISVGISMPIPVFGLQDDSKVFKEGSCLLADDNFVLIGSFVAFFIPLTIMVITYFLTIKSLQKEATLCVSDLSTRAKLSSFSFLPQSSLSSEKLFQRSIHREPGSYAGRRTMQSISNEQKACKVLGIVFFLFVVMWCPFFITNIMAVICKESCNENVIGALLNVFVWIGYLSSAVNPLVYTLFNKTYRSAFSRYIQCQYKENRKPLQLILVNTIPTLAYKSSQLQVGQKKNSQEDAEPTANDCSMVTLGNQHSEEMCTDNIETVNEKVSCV
Description: The head twitch response (HTR) assay in rodents is commonly used as a behavioral proxy for 5-HT2A receptor activation. For classical serotonergic psychedelics, mouse HTR potency correlates with potency of subjective effects in humans. The ability of compound 2-1 to induce HTR in mice was assessed using a validated and automated detection system. Briefly, adult male C57BL/6J mice surgically prepared with a small neodymium magnet (4.57 mm×4.57 mm×2.03 mm) attached to the cranium were injected intraperitoneally (i.p.) with single doses of compound 2-1 (0.3, 1, 3, 10, 30 mg/kg, based on weight of the free base) or 40% (w/v) 2-HPBCD (hydroxypropyl-beta-cyclodextrin) vehicle (n=5-6 mice per treatment). In a 5-HT2A receptor antagonism study, M100907, a 5-HT receptor antagonist (0.001, 0.01, 0.1 mg/kg, i.p.) was administered 20 minutes prior to compound 2-1. Immediately after compound 2-1 injection, the mouse was placed individually in a glass cylinder surrounded by a magnetometer coil. HTR were recorded for 30 minutes and analyzed using a validated technique based on artificial intelligence. […] In FIG. 1A, FIG. 1B, and FIG. 1C, HTR data were analyzed using a 1-way Analysis of Variance (ANOVA) followed by Dunnett's test **p<0.01, ***p<0.001, ****p<0.0001 vs. vehicle).
The HTR assay in rodents is commonly used as a behavioral proxy for 5-HT2A receptor activation. For classical serotonergic psychedelics, mouse HTR potency correlates with potency of subjective effects in humans. The ability of compound 2-2 to induce HTR in mice was assessed using a validated and automated detection system. Briefly, adult male C57BL/6J mice surgically prepared with a small neodymium magnet (4.57 mm×4.57 mm×2.03 mm) attached to the cranium were injected intraperitoneally (i.p.) with single doses of compound 2-2 (0.3, 1, 3, 10, 30 mg/kg, based on weight of the free base) or 40% (w/v) 2-HPBCD vehicle (n=5-6 mice per treatment). In a 5-HT2A receptor antagonism study, M100907 (0.001, 0.01, 0.1 mg/kg, i.p.) was administered 20 minutes prior to compound 2-2. Immediately after compound 2-2 injection, the mouse was placed individually in a glass cylinder surrounded by a magnetometer coil. HTR were recorded for 30 minutes and analyzed using a validated technique based on artificial intelligence. […] HTR were analyzed using a 1-way Analysis of Variance (ANOVA) followed by Dunnett's test (*p<0.05, **p<0.01, ***p<0.001, ****p<0.0001 vs. vehicle).

5-HT2A [2] = assay: Ca++ (calcium mobilization), 5-HT2A; type: cell-based, human; settings: Ca++, human; calculated using ΔΔlog(Emax/EC50), reference = 1
Description: as §1, §2

[3] = ip, C57BL/6J mice, 30 minutes, read-out: HTR 50% effective dose (ED50)

Sequence of 5-HT2A (Homo sapiens, UniProt P28223) (P28223 whole entry): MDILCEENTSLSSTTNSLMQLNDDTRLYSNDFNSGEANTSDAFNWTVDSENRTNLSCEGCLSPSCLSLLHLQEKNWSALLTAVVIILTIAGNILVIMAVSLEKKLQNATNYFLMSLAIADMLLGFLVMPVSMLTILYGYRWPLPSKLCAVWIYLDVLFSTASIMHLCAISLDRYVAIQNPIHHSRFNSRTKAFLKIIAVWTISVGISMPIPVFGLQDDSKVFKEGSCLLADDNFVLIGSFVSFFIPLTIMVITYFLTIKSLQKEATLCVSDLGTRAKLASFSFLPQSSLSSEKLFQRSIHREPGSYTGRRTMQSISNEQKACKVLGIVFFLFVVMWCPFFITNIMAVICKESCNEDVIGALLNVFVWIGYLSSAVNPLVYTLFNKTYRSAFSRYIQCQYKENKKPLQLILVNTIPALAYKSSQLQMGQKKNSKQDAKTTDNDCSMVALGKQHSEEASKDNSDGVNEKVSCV

Row | SMILES | EC50 (5-HT2A [1]) [µM] | Emax (5-HT2A [1]) [%] | EC50 (5-HT2C) [µM] | Emax (5-HT2C) [%] | shape of HTR dose-response curve (5-HT2A receptor; 0.3-30 mg/kg i.p.) | HTR compared to vehicle (5-HT2A receptor; 3 and 10 mg/kg, i.p.) | HTR after M100907 pretreatment (5-HT2A receptor; M100907 0.001, 0.01, 0.1 mg/kg i.p. 20 minutes prior, compound i.p.) | ED50 (5-HT2A receptor; [3]) [mg/kg] | ED50 (5-HT2A receptor; po, mice, read-out: HTR ED50) [mg/kg] | HTR compared to vehicle (5-HT2A receptor; oral, 30 mg/kg) | 5-HT2A/5-HT2C Selectivity (5-HT2A [2])
1 | COc1ccc(OC)c(CCNCc2cc(C)cc(Cl)c2)c1 [Compound 2-1, N-(3-chloro-5-methylbenzyl)-2-(2,5-dimethoxyphenyl)ethan-1-amine] | 0.0172 | 89.3 | 0.0422 | 82 | inverted “U”-shaped | significantly increased | significant dose-dependent attenuation | 1.7 | 15.7 | increased HTR significantly | 77
2 | COc1ccc(OC)c(CCNCc2cc(C)cc(F)c2)c1 [Compound 2-2, 2-(2,5-dimethoxyphenyl)-N-(3-fluoro-5-methylbenzyl)ethan-1-amine] | 0.0258 | 82.1 | 0.0735 | 88.2 | – | – | – | 3.2 | 13.7 | – | 56
